US11000033B2, “Ketone or oxime compound, and herbicide” (NISSAN CHEMICAL CORPORATION, priority 2014, dated 2021)

Key:
Type in all cases: in vivo
Scirpus juncoides = test: Test Example 1: herbicidal activity, application before weed generation in submerged conditions (symbol B); details: application herbicide amount 320 g/ha
Outline: (§1)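 Weeds are sown into submerged alluvial soil alongside transplanted 2.5-leaf rice, and the compound, as an emulsion diluted to a set rate, is applied onto the water before emergence. Rating on the 0–5 herbicidal-ratio scale follows 3 weeks of greenhouse growth at 25–30 °C.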

Amaranthus retroflexus [1] = test: Test Example 5: herbicidal effect by foliage application, plastic box (symbol N); details: 320 g/ha, 3 weeks after application
Outline: (§2)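 Visual herbicidal score, taken three weeks post-application, of seedlings sprayed on the foliage with water-diluted emulsion at a predetermined amount; plants were 14 days old, greenhouse-raised at 25° C. to 30° C.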

soybean [2] = test: Test Example 4: effect on crop by soil treatment (symbol d); details: 320 g/ha
Outline: (§3)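 Greenhouse culture at 25° C. to 30° C. followed sowing of seed in spots on sterilized diluvial soil with a soil cover close to 1.5 cm thick.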

Setaria viridis [3] = test: Test Example 5: herbicidal effect by foliage application, plastic box (symbol G); details: 320 g/ha, 3 weeks after application
Outline: as §2

wheat = test: Test Example 4: effect on crop by soil treatment (symbol e); details: 320 g/ha
Outline: as §3

Abutilon theophrasti = test: Test Example 5: herbicidal effect by foliage application, plastic box (symbol M); details: 320 g/ha, 3 weeks after application
Outline: as §2

Lolium multiflorum Lam. = test: Test Example 4: herbicidal effect by soil treatment (symbol K); details: 320 g/ha
Outline: (§4)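 Seeds were sown in sterilized diluvial soil, covered with about 1.5 cm of soil, and the soil surface was sprayed with a water-diluted emulsion of the compound at a predetermined rate. Plants grew in a greenhouse at 25° C. to 30° C.; effects were scored visually 3 weeks after application.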

Galium spurium = test: Test Example 5: herbicidal effect by foliage application, plastic box (symbol Q); details: 320 g/ha, 3 weeks after application
Outline: as §2

Amaranthus retroflexus [4] = test: Test Example 4: herbicidal effect by soil treatment (symbol N); details: 320 g/ha
Outline: as §4

Setaria viridis [5] = test: Test Example 4: herbicidal effect by soil treatment (symbol G); details: 320 g/ha
Outline: as §4

Chenopodium album [6] = test: Test Example 5: herbicidal effect by foliage application, plastic box (symbol O); details: 320 g/ha, 3 weeks after application
Outline: as §2

Chenopodium album [7] = test: Test Example 4: herbicidal effect by soil treatment (symbol O); details: 320 g/ha
Outline: as §4

Avena fatua = test: Test Example 4: herbicidal effect by soil treatment (symbol I); details: 320 g/ha
Outline: as §4

Monochoria vaginalis = test: Test Example 1: herbicidal activity, application before weed generation in submerged conditions (symbol C); details: application herbicide amount 320 g/ha
Outline: as §1

[8] = system: Echinochloa crus-galli var. crus-galli; test: Test Example 5: herbicidal effect by foliage application, plastic box (symbol H); details: 320 g/ha, 3 weeks after application
Outline: as §2

beet = test: Test Example 4: effect on crop by soil treatment (symbol f); details: 320 g/ha
Outline: as §3

[9] = system: Echinochloa crus-galli var. crus-galli; test: Test Example 3: herbicidal effect by foliage application, Wagner pot (symbol H); details: application herbicide amount 320 g/ha
Outline: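 The compound, formulated as an emulsion and diluted with water to a predetermined rate, is applied uniformly to leaves of two-week-old seedlings growing in submerged alluvial soil at 25–30 °C. Rice is included. Each plant is assessed 3 weeks later using defined criteria.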

soybean [10] = test: Test Example 5: effect on crop by foliage application, plastic box (symbol d); details: 320 g/ha, 3 weeks after application
Outline: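 Plants were raised from seed in a greenhouse (25° C. to 30° C.) after sowing in a plastic box of sterilized diluvial soil.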

Structure (SMILES) | Herbicidal effect grade, B: Scirpus juncoides (Scirpus juncoides) | d: soybean, effect grade on crop (soybean [2]) | e: wheat, effect grade on crop (wheat) | K: Lolium multiflorum Lam., herbicidal effect grade (Lolium multiflorum Lam.) | N: Amaranthus retroflexus, herbicidal effect grade (Amaranthus retroflexus [4]) | G: Setaria viridis, herbicidal effect grade (Setaria viridis [5]) | O: Chenopodium album, herbicidal effect grade (Chenopodium album [7]) | I: Avena fatua, herbicidal effect grade (Avena fatua) | Herbicidal effect grade, C: Monochoria vaginalis (Monochoria vaginalis) | f: beet, effect grade on crop (beet) | herbicidal effect on H (Echinochloa crus-galli var. crus-galli), grade 0-5 [9] | other results
CON=C(C)CC1CC(OC(=O)c2c(Cl)nn(C)c2Cl)=C(c2c(C)cc(C)cc2C)C1=O (stereo not drawn) [1-160] | 4 (Herbicidal ratio of 70% or higher and lower than 90%) | 0 (Herbicidal ratio of 5% or lower (almost no effect)) | 2 (Herbicidal ratio of 20% or higher and lower than 40%) | 5 (Herbicidal ratio of 90% or more (almost completely withered)) | 4 (Herbicidal ratio of 70% or higher and lower than 90%) | 5 (Herbicidal ratio of 90% or more (almost completely withered)) | 0 (Herbicidal ratio of 5% or lower (almost no effect)) | 0 (Herbicidal ratio of 5% or lower (almost no effect)) | 2 (Herbicidal ratio of 20% or higher and lower than 40%) | 0 (Herbicidal ratio of 5% or lower (almost no effect)) | 5 (Herbicidal ratio of 90% or more (almost completely withered)) | N: Amaranthus retroflexus, herbicidal effect grade (Amaranthus retroflexus [1]): 0 (Herbicidal ratio of 5% or lower (almost no effect)); G: Setaria viridis, herbicidal effect grade (Setaria viridis [3]): 5 (Herbicidal ratio of 90% or more (almost completely withered)); M: Abutilon theophrasti, herbicidal effect grade (Abutilon theophrasti): 4 (Herbicidal ratio of 70% or higher and lower than 90%); Q: Galium spurium, herbicidal effect grade (Galium spurium): 4 (Herbicidal ratio of 70% or higher and lower than 90%); O: Chenopodium album, herbicidal effect grade (Chenopodium album [6]): 2 (Herbicidal ratio of 20% or higher and lower than 40%); H: Echinochloa crus-galli var. crus-galli, herbicidal effect grade [8]: 5 (Herbicidal ratio of 90% or more (almost completely withered)); d: soybean, effect on crop grade (soybean [10]): 2 (Herbicidal ratio of 20% or higher and lower than 40%)
CON=C(C)CC1CC(OC(=O)c2ccccc2OC(F)(F)F)=C(c2c(C)cc(C)cc2C)C1=O (stereo not drawn) [1-155] | 5 (Herbicidal ratio of 90% or more (almost completely withered)) | 0 (Herbicidal ratio of 5% or lower (almost no effect)) | 3 (Herbicidal ratio of 40% or higher and lower than 70%) | 5 (Herbicidal ratio of 90% or more (almost completely withered)) | 5 (Herbicidal ratio of 90% or more (almost completely withered)) | 5 (Herbicidal ratio of 90% or more (almost completely withered)) | 0 (Herbicidal ratio of 5% or lower (almost no effect)) | 4 (Herbicidal ratio of 70% or higher and lower than 90%) | 1 (Herbicidal ratio of 5% or higher and lower than 20%) | 0 (Herbicidal ratio of 5% or lower (almost no effect)) | 5 (Herbicidal ratio of 90% or more (almost completely withered)) | N: Amaranthus retroflexus, herbicidal effect (criteria 0-5) (Amaranthus retroflexus [1]): 2 (Herbicidal ratio of 20% or higher and lower than 40%); G: Setaria viridis, herbicidal effect (criteria 0-5) (Setaria viridis [3]): 5 (Herbicidal ratio of 90% or more (almost completely withered)); M: Abutilon theophrasti, herbicidal effect (criteria 0-5) (Abutilon theophrasti): 4 (Herbicidal ratio of 70% or higher and lower than 90%); Q: Galium spurium, herbicidal effect (criteria 0-5) (Galium spurium): 0 (Herbicidal ratio of 5% or lower (almost no effect)); O: Chenopodium album, herbicidal effect (criteria 0-5) (Chenopodium album [6]): 0 (Herbicidal ratio of 5% or lower (almost no effect)); H: Echinochloa crus-galli var. crus-galli, herbicidal effect (criteria 0-5) [8]: 5 (Herbicidal ratio of 90% or more (almost completely withered)); d: soybean, effect on crop (criteria 0-5) (soybean [10]): 3 (Herbicidal ratio of 40% or higher and lower than 70%)
